Data from patent US11130771B2, “Prodrugs of Naltrexone, Nalmefene and derivatives thereof” (TAIWANJ PHARMACEUTICALS CO., LTD., priority 2018, dated 2021).

Assay: Pharmacokinetic Measurement in BALB/c Mice (oral gavage, plasma LC-MS/MS)
Conditions: parent compound after oral administration, compared with prodrug and Naltrexone from prodrug; FIGS. 1 and 2
Protocol: This study tested the bioavailability of different test compounds in rats, by oral gavage administration, at prescribed dose levels.
Male BALB/c mice, body weight approximately 1925 g, were purchased from BioLASCO Taiwan Co., Ltd. and kept in the Animal Laboratory of Industrial
LC-MS/MS: ABSCIEX 4000 QTRAP LC-MS/MS System; Polarity: positive mode; Column: XBridge RP18, 3.5 μm, 4.6×20 mm; Flow rate: 0.7 mL/min; Injection volume: 10 μL; Temperature: Room temperature; Running time: 5 min.
Blood aliquots (40 μL) were collected from jugular vein catheterized BALB/c in tubes coated with K2-EDTA, mixed gently, then kept on ice and centrifuged at 7000×g for 15 minutes at 4° C. The plasma was then harvested and kept frozen at −80° C. until further processing.
The plasma samples were processed using acetonitrile precipitation and analyzed by LC-MS/MS. A plasma calibration curve was generated. […]
The spiked plasma samples were processed together with the unknown plasma samples using the same procedure. The processed plasma samples were stored at −80° C. until the LC-MS/MS analysis, at which time peak areas were recorded, and the concentrations of the test compound in the unknown plasma samples were determined using the respective calibration curve. The reportable linear range of the assay was determined, along with the lower limit of quantitation (LOQ). […]

## O=C1CC[C@@]2(O)[C@H]3Cc4ccc(O)c5c4[C@@]2(CCN3CC2CC2)[C@H]1O5 [Naltrexone]
  concentration in blood with respect to time: raised rapidly and reached the highest level
